Measurements reported in US10905672B2, “Combination of baclofen, acamprosate and medium chain triglycerides for the treatment of neurological disorders” (PHARNEXT, priority 2014, dated 2021).
Entries after “also recorded” stand apart in the source; their conditions may differ.

How the values were obtained:
[1] = system: Abeta 25-35 intoxicated mice; assay: Spontaneous alternation performance, Y-maze test (spatial working memory) after icv Abeta 25-35; assay type: in vivo, Swiss mice; conditions: tested day 7
Method: (§1) Male Swiss mice are used throughout the study. Animals are housed in plastic cages, with free access to laboratory chow and water, except during behavioral experiments, and kept in a regulated environment, under a 12 h light/dark cycle (light on at 8:00 a.m.). Experiments are carried out in a soundproof and air-regulated experimental room to which mice have been habituated at least 30 min before each experiment.
(§2) Drug(s) is/are administered daily by gavage (per os). The Abeta 25-35 peptide and scrambled Abeta 25-35 peptide (control) have been dissolved in sterile bidistilled water, and stored at −20° C. until use. The Abeta peptides are then administered intracerebroventricularly (icy). In brief, each mouse is anesthetized lightly with ether, and a gauge stainless-steel needle is inserted unilaterally 1 mm to the right of the midline point equidistant from each eye, at an equal distance between the eyes and the ears and perpendicular to the plane of the skull. Peptides or vehicle are delivered gradually within approximately 3 s. […] The administration site is checked by injecting Indian ink in preliminary experiments. Neither insertion of the needle nor injection of the vehicle has a significant influence on survival, behavioral responses or cognitive functions.
On day −1, i.e., 24 h before the Abeta 25-35 peptide injection, drugs, candidate combinations, baclofen acamprosate mix, or the vehicle solution are administered per os by gavage twice daily (at 8:00 a.m. and 6:00 p.m.), and caprylic triglyceride is administered per os by gavage once daily (at 8:00 a.m.).
On day 0 (at 10:00 a.m.), mice are injected icy with Abeta 25-35 peptide or scrambled Abeta 25-35 peptide (control) in a final volume of 3 μL (3 mM).
Between day 0 and day 7, drugs, drug combinations or the vehicle solution are administered per os by gavage once or twice daily (at 8:00 a.m. for caprylic triglyceride or at 8:00 a.m. and 6:00 p.m. for baclofen and acamprosate). As a positive control, one animal group receives donepezil (reference compound—1 mg/kg/day) per os by gavage in a single injection (at 8:00 a.m.). Drugs are solubilized in water and freshly prepared just before each gavage administration.
On day 7, all animals are tested for spontaneous alternation performance in the Y-maze test, an index of spatial working memory (short-term memory).
On day 7, all animals are tested for spontaneous alternation performance in the Y-maze, an index of spatial working memory. The Y-maze is made of grey polyvinylchloride. Each arm is 40 cm long, 13 cm high, 3 cm wide at the bottom, 10 cm wide at the top, and converges at an equal angle. Each mouse is placed at the end of one arm and allowed to move freely through the maze during an 8 min session. The series of arm entries, including possible returns into the same arm, are checked visually. An alternation is defined as entries into all three arms on consecutive occasions. The number of maximum alternations is therefore the total number of arm entries minus two and the percentage of alternation is calculated as (actual alternations/maximum alternations)×100. Parameters include the percentage of alternation (memory index) and total number of arm entries (exploration index). Animals that show an extreme behavior (alternation percentage <25% or >85% or number of arm entries <10) are discarded. Usually, this accounts for 0-5% of the animals. […]

[2] = system: Abeta 25-35 intoxicated mice; assay: Step-through passive avoidance test (contextual long-term memory) after icv Abeta 25-35; assay type: in vivo, Swiss mice
Method: as §1
as §2, with “functions. […]” for “functions.”
On days 8 and 9, the contextual long-term memory of the animals is assessed using the step-through type passive avoidance procedure.
The apparatus is a two-compartment (15×20×15 cm high) box with one compartment being illuminated with white polyvinylchloride walls and the other compartment darkened with black polyvinylchloride walls and a grid floor. […] The step-through latency, that is, the latency spent to enter the darkened compartment, and the number of vocalizations is recorded. […] After 5 s the door is raised, and the step-through latency and the escape latency, i.e., the time spent to return into the white compartment, are recorded up to 300 s.

With `CC(=O)NCCCS(=O)(=O)O` [acamprosate] the “effect on working memory (percentage of alternation) compared to Abeta 25-35 intoxicated animals” value ([1]; acamprosate alone, 32 μg/kg/bid per os, FIG. 1-B) was “No significant effect; also recorded: does not improve working memory” and the “effect on memory defects (step-through latency) compared to Abeta 25-35 intoxicated animals” value ([2]; acamprosate monotherapy, 32 μg/kg/bid per os, FIG. 2-B) was “does not provide any improvement”.

In the case of `NCC(CC(=O)O)c1ccc(Cl)cc1` (centres unmarked) [Baclofen, baclofen], the “effect on working memory (percentage of alternation) compared to Abeta 25-35 intoxicated animals” value ([1]; baclofen alone, 480 μg/kg/bid per os, FIG. 1-B) is reported as “does not improve working memory”, the “effect on working memory (percentage of alternation) compared to Abeta 25-35 intoxicated animals” value ([1]; baclofen alone, 480 μg/kg/bid per os, FIG. 1-B, listed as baclofen) is reported as “No significant effect” and the “effect on memory defects (step-through latency) compared to Abeta 25-35 intoxicated animals” value ([2]; baclofen monotherapy, 480 μg/kg/bid per os, FIG. 2-B) is reported as “does not provide any improvement”.

In the case of `CCCCCCCC(=O)OCC(COC(=O)CCCCCCC)OC(=O)CCCCCCC` [C8 MCT, caprylic triglyceride], the “effect on working memory (percentage of alternation) compared to Abeta 25-35 intoxicated animals” value ([1]; caprylic triglyceride alone, 0.555, 1.66 and 5 g/kg/d per os once daily, FIG. 1-A) is reported as “does not improve working memory”, the “effect on working memory (percentage of alternation) compared to Abeta 25-35 intoxicated animals” value ([1]; caprylic triglyceride alone, 0.555, 1.66 and 5 g/kg/d per os once daily, FIG. 1-A, listed as caprylic triglyceride) is reported as “No significant effect” and the “effect on memory defects (step-through latency) compared to Abeta 25-35 intoxicated animals” value ([2]; C8 MCT alone, 0.555, 1.66 and 5 g/kg/d per os, FIG. 2-A) is reported as “does not provide any statistically significant effect”.
